These results are taken from paper PMC11098465, “A comparative analysis of peptide-delivered antisense antibiotics using diverse nucleotide mimics” (RNA, 2024).

The test system of the experiment is Salmonella outer membrane. Nature of the experiment: Outer membrane permeabilization (NPN fluorescence). It is filed as cell-based, Salmonella enterica serovar Typhimurium strain SL1344. Particulars: KFF-ASOs 10 µM, CTAB 10 µM, PMXB 0.4 µM; added after 14 min. From the text:
Because the negASOs are ineffective in bacterial cells despite their activity in cell-free systems, we investigated if these ASOs affected the ability of the KFF carrier peptide to induce OM permeabilization. Therefore, we used the hydrophobic fluorophore N-phenylnaphthylamine (NPN), a dye that turns fluorescent after binding to hydrophobic regions within cell membranes. This only occurs in cells with a compromised OM ([Ghosh et al. 2016]; [Ellis et al. 2019]). […] However, when conjugated to negASOs, the KFF carrier is unable to permeabilize the OM (Fig. 10). This could potentially be due to electrostatic interactions between the negASOs and the positively charged KFF.
The experiments were performed by modifying previously published protocols ([Ghosh et al. 2016]; [Ellis et al. 2019]; [Zheng et al. 2021]). Salmonella (WT SL1344, JVS-1574) were grown overnight in 4 mL MHB medium at 37°C (with shaking at 220 rpm). Then the culture was diluted 1:100 and grown until OD600 0.5 (∼2 × 10^8 cfu/mL). This culture was harvested and washed two times with 5 mM HEPES and further diluted to OD600 0.2 in 5 mM HEPES supplemented with 5 mM Glucose (pH 7.2). These cells were then incubated with NPN (Sigma) at a final concentration of 10 µM. One hundred and ninety microliters of NPN-treated cells were transferred into 96-well back plates with transparent bottoms and fluorescence (excitation = 350 nm, emission = 420 nm) was recorded for 60 min (reading was performed every minute) using a Synergy H1 plate reader (Biotek). On the 14th minute, 10 µL of the test compounds (10 µM final concentration) was added into the wells. CTAB (Sigma) 10 µM (final concentration) or PMXB (Sigma) (final concentration of 0.4 µM) were used as positive controls, while water was used as negative control. The fluorescence of the wells was monitored using the same settings as above. The plots were created using OrginPro 2023. The experiment was performed twice and Figure 10 is a representative example of two independent experiments.

`CCCCCCCCCCCCCCCC[N+](C)(C)C.[Br-]` [CTAB, reference compound]: the “Outer membrane permeabilization, NPN fluorescence (in words)” value was “cause a rapid increase in fluorescence”.

Regarding Polymyxin B [reference compound], the “Outer membrane permeabilization, NPN fluorescence (in words)” value is listed as “cause a rapid increase in fluorescence”.
